Results reported in PubChem BioAssay (NCI).
Where “and” joins values, the source holds several entries; their conditions need not be identical. Equal values may be shown once.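 Each compound was tested at five concentrations against cells in 96-well plates for 48 hours. GI50 marks 50% less growth. At the TGI there is no net growth.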

Key:
Experiment in all cases: NCI anticancer screen, dose series, 48 h
786-0 renal = tested on: 786-0 renal
ACHN renal = tested on: ACHN renal
COLO 205 colon = tested on: COLO 205 colon
HCT-15 colon = tested on: HCT-15 colon
HT29 colon = tested on: HT29 colon
LOX IMVI melanoma = tested on: LOX IMVI melanoma
NCI-H226 lung = tested on: NCI-H226 lung
NCI/ADR-RES ovarian = tested on: NCI/ADR-RES ovarian
SK-MEL-28 melanoma = tested on: SK-MEL-28 melanoma
SK-MEL-5 melanoma = tested on: SK-MEL-5 melanoma
NCI-H522 lung = tested on: NCI-H522 lung
HOP-92 NSCLC = tested on: HOP-92 NSCLC

Compound	TGI (786-0 renal)	TGI (ACHN renal)	TGI (COLO 205 colon)	TGI (HCT-15 colon)	TGI (HT29 colon)	TGI (LOX IMVI melanoma)	TGI (NCI-H226 lung)	TGI (NCI/ADR-RES ovarian)	TGI (SK-MEL-28 melanoma)	TGI (SK-MEL-5 melanoma)	TGI (NCI-H522 lung)	TGI (HOP-92 NSCLC)	GI50 (NCI-H522 lung)	GI50 (SK-MEL-5 melanoma)	GI50 (ACHN renal)	GI50 (HCT-15 colon)	GI50 (HT29 colon)	GI50 (NCI-H226 lung)	GI50 (NCI/ADR-RES ovarian)	GI50 (SK-MEL-28 melanoma)
O=c1oc2ccccc2n1CCN1CCCCC1	> 100 µM	> 100 µM	> 100 µM	> 100 µM	> 100 µM	> 100 µM	> 100 µM	> 100 µM	> 100 µM	> 100 µM										
Cc1nnc2n1-c1ccccc1C(=S)N1CSCC21 (stereo not drawn)	> 100 µM	> 100 µM	> 100 µM	> 100 µM	> 100 µM	> 100 µM	> 100 µM	> 100 µM	> 100 µM	> 100 µM	> 100 µM									
CC(=O)OC1c2ccccc2CCCCCCC12OCCO2 (stereo not drawn)	> 100 µM	> 100 µM	> 100 µM	> 100 µM	> 100 µM	> 100 µM	> 100 µM		> 100 µM	> 100 µM	> 100 µM									
S=C1N=C(Cl)C2(NN1)c1ccccc1-c1ccccc12	> 10 µM		> 10 µM	> 10 µM		> 10 µM	> 10 µM	> 10 µM	> 10 µM	> 10 µM		> 10 µM								
COc1cccc(-c2cc(=O)c3c(C)ccnc3[nH]2)c1	> 100 µM	> 100 µM	0.0854 µM		> 100 µM	> 100 µM	0.0742 µM			3.71 µM	0.226 µM									
CC(C)=CCSC1CC2C(CC1(C)O)C2(C)C (stereo not drawn)	29.6 µM and 25.8 µM	31 µM and 31.3 µM	32.5 µM and 30.8 µM	31.4 µM and 29.6 µM	29 µM and 28.2 µM	29.7 µM	27.5 µM		31.3 µM and 30.7 µM	28.5 µM and 20.1 µM	26.9 µM and 18.8 µM	30.4 µM and 27 µM	13.3 µM and 4.38 µM	14.7 µM and 6.59 µM						
CC1(C)N=C(N)N=C(N)N1c1cccc(OCCOc2ccc([N+](=O)[O-])cc2)c1	> 100 µM	> 100 µM	> 100 µM	> 100 µM	> 100 µM	> 100 µM			> 100 µM	> 100 µM	> 100 µM	> 100 µM								
CC12Cc3cc4c(cc3C1(c1ccc([N+](=O)[O-])cc1)OCCO2)OCO4 (stereo not drawn)	> 100 µM	> 100 µM	> 100 µM	> 100 µM	> 100 µM	> 100 µM	86.7 µM	> 100 µM	> 100 µM	> 100 µM	> 100 µM									
COc1cc(COC(=O)N2CCC2C(=O)O)c([N+](=O)[O-])cc1OC (stereo not drawn)	> 100 µM	> 100 µM	> 100 µM	> 100 µM	> 100 µM		> 100 µM	> 100 µM	> 100 µM	> 100 µM		> 100 µM								
COC(=O)c1csc(-c2nc(CCNC(=O)OC(C)(C)C)sc2Br)n1	> 100 µM	> 100 µM	> 100 µM	> 100 µM	> 100 µM		> 100 µM	> 100 µM	> 100 µM	> 100 µM										
COc1ccc(C2S/C(=C\c3ccc(O)cc3)C(=O)N2NC(=O)Cc2ccccc2)cc1 (stereo not drawn)	> 100 µM	> 100 µM	> 100 µM	> 100 µM	> 100 µM	> 100 µM	> 100 µM		> 100 µM	> 100 µM	> 100 µM	> 100 µM								
CC(=O)OCC1=C(C)C(OC(=O)C(OC(C)=O)[C@@H](NC(=O)c2ccccc2)c2ccccc2)CCC1(C)C (stereo partly drawn)	> 100 µM	> 100 µM	> 100 µM	> 100 µM	> 100 µM	> 100 µM	> 100 µM	> 100 µM	> 100 µM	> 100 µM										
CNC1=CC(=O)C2=C(C1=O)[C@H]1CC[C@]3(C)C(=O)CC[C@H]3[C@@H]1CC2	38.3 µM	71.4 µM	33.3 µM	27.5 µM		23.7 µM	25.5 µM	42.1 µM	34.4 µM	27.6 µM		25.7 µM								
CNC(=O)c1[nH]cnc1/N=N/N(C)N	> 100 µM		> 100 µM	> 100 µM	> 100 µM	> 100 µM	> 100 µM	> 100 µM	> 100 µM	> 100 µM	> 100 µM									
CCN(CC)C(=S)SS(=O)(=O)c1ccc([N+](=O)[O-])cc1	32.4 µM	> 100 µM	> 100 µM	> 100 µM	64.7 µM	33.8 µM	> 100 µM	> 100 µM	38.3 µM	29.2 µM					36.5 µM	52.7 µM	22 µM	83.8 µM	48.3 µM	19 µM
